Results as given in the NIST ThermoML archive (doi:10.1016/j.jct.2016.08.038).
Numbers after ± are expanded uncertainties.

Assays:
[1] = for kinematic viscosity / mass density: 101.33 kPa; for kinematic viscosity: Capillary tube (Ostwald / Ubbelohde) method; for kinematic viscosity / mass density / surface tension liquid-gas / electrical conductivity / speed of sound: Liquid; for mass density: Vibrating tube method; for surface tension liquid-gas: Drop volume; for electrical conductivity / speed of sound: 100 kPa; for electrical conductivity: Frequency=0.001 MHz, Alternating current cell with electrodes; for speed of sound: Frequency=3 MHz, Sing-around technique in a fixed-path interferometer
[2] = molar heat capacity at constant pressure; conditions: 101.33 kPa, Small sample (50 mg) DSC, Liquid
[3] = refractive index (Na D-line) (dimensionless); conditions: 101.33 kPa, Standard Abbe refractometry, Liquid

Question: Which kinematic viscosity ([1]; 323.15 K) does the source give for CC[n+]1ccccc1.O=S(=O)([O-])C(F)(F)F [1-ethylpyridinium triflate] here?
Answer: Its kinematic viscosity is 2.13e-05 ± 4.5e-07 m2/s.

Question: What about the mass density ([1]; 323.15 K) of the same compound?
Answer: Its mass density is 1384.6 ± 1.1 kg/m3.

Question: And the surface tension liquid-gas ([1]; 323.15 K)?
Answer: Its surface tension liquid-gas is 41.31 ± 0.49 mN/m.

Question: What about the electrical conductivity ([1]; 325.65 K) of the same compound?
Answer: The electrical conductivity was 1.3 ± 0.026 S/m.

Question: What about the speed of sound ([1]; 325.65 K) of the same compound?
Answer: Its speed of sound is 1427.4 ± 2.8 m/s.

Question: And the kinematic viscosity ([1]; 325.65 K)?
Answer: The kinematic viscosity was 1.96e-05 ± 4.1e-07 m2/s.

Question: What about the mass density ([1]; 325.65 K) of the same compound?
Answer: Its mass density is 1382.5 ± 1.1 kg/m3.

Question: And the surface tension liquid-gas ([1]; 325.65 K)?
Answer: Its surface tension liquid-gas is 41.22 ± 0.49 mN/m.

Question: And the electrical conductivity ([1]; 328.15 K)?
Answer: The electrical conductivity was 1.39 ± 0.028 S/m.

Question: What about the speed of sound ([1]; 328.15 K) of the same compound?
Answer: Its speed of sound is 1421.9 ± 2.8 m/s.

Question: And the kinematic viscosity ([1]; 328.15 K)?
Answer: Its kinematic viscosity is 1.82e-05 ± 3.8e-07 m2/s.

Question: And the mass density ([1]; 328.15 K)?
Answer: Its mass density is 1380.47 ± 1.1 kg/m3.

Question: What about the surface tension liquid-gas ([1]; 328.15 K) of the same compound?
Answer: The surface tension liquid-gas was 41.16 ± 0.49 mN/m.

Question: And the electrical conductivity ([1]; 330.65 K)?
Answer: The electrical conductivity was 1.47 ± 0.029 S/m.

Question: What about the speed of sound ([1]; 330.65 K) of the same compound?
Answer: Its speed of sound is 1416.1 ± 2.7 m/s.

Question: And the kinematic viscosity ([1]; 330.65 K)?
Answer: The kinematic viscosity was 1.69e-05 ± 3.5e-07 m2/s.

Question: What about the mass density ([1]; 330.65 K) of the same compound?
Answer: Its mass density is 1378.45 ± 1.1 kg/m3.

Question: And the surface tension liquid-gas ([1]; 330.65 K)?
Answer: The surface tension liquid-gas was 41.07 ± 0.49 mN/m.

Question: And the electrical conductivity ([1]; 333.15 K)?
Answer: Its electrical conductivity is 1.59 ± 0.032 S/m.

Question: What about the speed of sound ([1]; 333.15 K) of the same compound?
Answer: The speed of sound was 1410.6 ± 2.7 m/s.

Question: And the kinematic viscosity ([1]; 333.15 K)?
Answer: Its kinematic viscosity is 1.57e-05 ± 3.3e-07 m2/s.

Question: What about the mass density ([1]; 333.15 K) of the same compound?
Answer: The mass density was 1376.42 ± 1.1 kg/m3.

Question: What about the surface tension liquid-gas ([1]; 333.15 K) of the same compound?
Answer: The surface tension liquid-gas was 40.95 ± 0.49 mN/m.

Question: And the electrical conductivity ([1]; 335.65 K)?
Answer: The electrical conductivity was 1.68 ± 0.034 S/m.

Question: What about the speed of sound ([1]; 335.65 K) of the same compound?
Answer: Its speed of sound is 1405.1 ± 2.7 m/s.

Question: And the kinematic viscosity ([1]; 335.65 K)?
Answer: Its kinematic viscosity is 1.46e-05 ± 3.1e-07 m2/s.

Question: And the mass density ([1]; 335.65 K)?
Answer: Its mass density is 1374.41 ± 1.1 kg/m3.

Question: And the surface tension liquid-gas ([1]; 335.65 K)?
Answer: The surface tension liquid-gas was 40.88 ± 0.49 mN/m.

Question: And the electrical conductivity ([1]; 338.15 K)?
Answer: Its electrical conductivity is 1.78 ± 0.036 S/m.

Question: What about the speed of sound ([1]; 338.15 K) of the same compound?
Answer: Its speed of sound is 1399.7 ± 2.7 m/s.

Question: What about the kinematic viscosity ([1]; 338.15 K) of the same compound?
Answer: Its kinematic viscosity is 1.36e-05 ± 2.9e-07 m2/s.

Question: What about the mass density ([1]; 338.15 K) of the same compound?
Answer: The mass density was 1372.35 ± 1.1 kg/m3.

Question: What about the surface tension liquid-gas ([1]; 338.15 K) of the same compound?
Answer: The surface tension liquid-gas was 40.76 ± 0.49 mN/m.

Question: What about the Normal melting temperature ([1]; Crystal 1, DTA) of the same compound?
Answer: Its Normal melting temperature is 16 ± 1 °C.

Question: What about the Triple point temperature ([1]; Crystal 2, DSC) of the same compound?
Answer: The Triple point temperature was 260.4 ± 1.2 K.

Question: And the “molar heat capacity at constant pressure” value ([2]; 293.15 K)?
Answer: Its value is 348.4 ± 12 J/K/mol.

Question: What about the “molar heat capacity at constant pressure” value ([2]; 295.65 K) of the same compound?
Answer: The value was 350.2 ± 12 J/K/mol.

Question: What about the “molar heat capacity at constant pressure” value ([2]; 298.15 K) of the same compound?
Answer: Its value is 351.8 ± 12 J/K/mol.

Question: And the “molar heat capacity at constant pressure” value ([2]; 300.65 K)?
Answer: The value was 353.6 ± 12 J/K/mol.

Question: What about the “molar heat capacity at constant pressure” value ([2]; 303.15 K) of the same compound?
Answer: Its value is 355.3 ± 12 J/K/mol.

Question: What about the “molar heat capacity at constant pressure” value ([2]; 305.65 K) of the same compound?
Answer: Its value is 357.1 ± 12 J/K/mol.

Question: What about the “molar heat capacity at constant pressure” value ([2]; 308.15 K) of the same compound?
Answer: The value was 358.7 ± 12 J/K/mol.

Question: And the “molar heat capacity at constant pressure” value ([2]; 310.65 K)?
Answer: The value was 360.5 ± 12 J/K/mol.

Question: And the “molar heat capacity at constant pressure” value ([2]; 313.15 K)?
Answer: Its value is 362.1 ± 12 J/K/mol.

Question: And the “molar heat capacity at constant pressure” value ([2]; 315.65 K)?
Answer: The value was 363.8 ± 12 J/K/mol.

Question: And the “molar heat capacity at constant pressure” value ([2]; 318.15 K)?
Answer: The value was 365.4 ± 12 J/K/mol.

Question: And the “molar heat capacity at constant pressure” value ([2]; 320.65 K)?
Answer: Its value is 367 ± 12 J/K/mol.

Question: And the “molar heat capacity at constant pressure” value ([2]; 323.15 K)?
Answer: The value was 368.7 ± 12 J/K/mol.

Question: And the “molar heat capacity at constant pressure” value ([2]; 325.65 K)?
Answer: The value was 370.3 ± 12 J/K/mol.

Question: And the “molar heat capacity at constant pressure” value ([2]; 328.15 K)?
Answer: Its value is 371.8 ± 12 J/K/mol.

Question: What about the “molar heat capacity at constant pressure” value ([2]; 330.65 K) of the same compound?
Answer: The value was 373.5 ± 12 J/K/mol.

Question: What about the “molar heat capacity at constant pressure” value ([2]; 333.15 K) of the same compound?
Answer: The value was 375.2 ± 12 J/K/mol.

Question: What about the “molar heat capacity at constant pressure” value ([2]; 335.65 K) of the same compound?
Answer: Its value is 376.9 ± 12 J/K/mol.

Question: What about the “molar heat capacity at constant pressure” value ([2]; 338.15 K) of the same compound?
Answer: Its value is 378.6 ± 13 J/K/mol.

Question: What about the refractive index ([3]; 293.15 K) of the same compound?
Answer: Its refractive index is 1.46039 ± 0.00037.

Question: And the refractive index ([3]; 295.65 K)?
Answer: The refractive index was 1.45969 ± 0.00037.

Question: And the refractive index ([3]; 298.15 K)?
Answer: Its refractive index is 1.45898 ± 0.00037.

Question: What about the refractive index ([3]; 300.65 K) of the same compound?
Answer: The refractive index was 1.4583 ± 0.00037.

Question: And the refractive index ([3]; 303.15 K)?
Answer: The refractive index was 1.45759 ± 0.00037.

Question: What about the refractive index ([3]; 305.65 K) of the same compound?
Answer: The refractive index was 1.45689 ± 0.00037.

Question: And the refractive index ([3]; 308.15 K)?
Answer: The refractive index was 1.45619 ± 0.00037.

Question: What about the refractive index ([3]; 310.65 K) of the same compound?
Answer: Its refractive index is 1.4555 ± 0.00037.

Question: What about the refractive index ([3]; 313.15 K) of the same compound?
Answer: Its refractive index is 1.45484 ± 0.00037.

Question: And the refractive index ([3]; 315.65 K)?
Answer: Its refractive index is 1.45415 ± 0.00037.

Question: What about the refractive index ([3]; 318.15 K) of the same compound?
Answer: The refractive index was 1.45345 ± 0.00037.

Question: And the refractive index ([3]; 320.65 K)?
Answer: The refractive index was 1.45276 ± 0.00037.

Question: And the refractive index ([3]; 323.15 K)?
Answer: Its refractive index is 1.45206 ± 0.00037.

Question: What about the refractive index ([3]; 325.65 K) of the same compound?
Answer: The refractive index was 1.45134 ± 0.00037.

Question: And the refractive index ([3]; 328.15 K)?
Answer: Its refractive index is 1.45064 ± 0.00037.

Question: What about the refractive index ([3]; 330.65 K) of the same compound?
Answer: Its refractive index is 1.44995 ± 0.00037.

Question: What about the refractive index ([3]; 333.15 K) of the same compound?
Answer: The refractive index was 1.44927 ± 0.00037.

Question: What about the refractive index ([3]; 335.65 K) of the same compound?
Answer: The refractive index was 1.44859 ± 0.00037.

Question: And the refractive index ([3]; 338.15 K)?
Answer: The refractive index was 1.44789 ± 0.00037.
